Laboratory results published in patent US10308654B2, “Preparation and use of kinase inhibitor” (CHANGZHOU LONGTHERA PHARMACEUTICALS INC, priority 2015, dated 2019).

Key:
[1] = target: CDK4/CyclinD1 (Homo sapiens (Human), UniProt P11802); experiment: CDK kinase activity assay (LANCE TR-FRET, ULight-4E-BP1 substrate); format: biochemical; conditions: CDK4/CyclinD1, 60 minutes incubation
Description: (§1) The CDK kinase used in this experiment: CDK4/CyclinD1 (invitrogen, Item No: PV4400); CDK6/CyclinD1 (invitrogen, Item No: PV4401); CDK1/CyclinB (invitrogen, Item No: PV3292).
(§2) Reagents used: Substrate is ULight-4E-BP1 (PerkinElmer, Item No: TRF0128); antibody is Eu-labeledanti-phospho-eIF4E-bindingprotein1 (Thr37/46) (Perkin-Elmer, Item No: TRF0216).
(§3) The test compound was dissolved in dimethyl sulfoxide and the solution was diluted to each concentration gradient with a buffer (50 mM HEPES, 10 mM MgCl2, 1 mM EGTA, 2 mM DTT and 0.01% Tween20) according to the test needs, the concentration of dimethyl sulfoxide was 4%. The buffer was then used to dilute ATP and the substrate ULight-4E-BP1 to prepare the mixture of 800 μM ATP and 200 nM substrate for further use. 2.5 μL of mixture of substrate and ATP or 2.5 μL of substrate was added to the wells, and then 2.5 μL of compound or 4% buffer of dimethyl sulfoxide was added, finally 5 μL of enzyme (final concentration was 0.66 μg/mL) was added, incubated avoiding light at room temperature for 60 minutes. 5 μL of EDTA stop buffer (final concentration was […]) diluted with 1×detectionbuffer (LANCEDetectionBuffer, 10×, PerkinElmer, CR97-100) was added to each well, and then 5 μL of antibody (final concentration was 2 nM) diluted with 1×detectionbuffer was added, incubated avoiding light at room temperature for 60 minutes. Perkin Elmer EnVision® TRFRETmode (Excitation wavelength: 320 nm, emission wavelength: 615 nm and 665 nm) was used to measure plates.
(§4) The inhibition rate of the sample was determined by the following formula: […]
(§5) IC50 values were calculated using GraphPadPrism software.

[2] = system: Colo205 cells; experiment: Proliferation inhibitory activity against human colon cancer cell line Colo205 (CCK8); format: cell-based; conditions: COLO 205, 96 hours
Description: In vitro cell assay described below could determine the proliferation inhibitory activity against human colon cancer cell line of the test compounds, and their activities could be represented by IC50 value.
Colo205 cells (Chinese Academy of Sciences typical culture storage committee cell bank) were inoculated in 96-well culture plate with a suitable cell concentration of 2000 cells per hole, 140 μL of medium per well, then incubated in a carbon dioxide incubator at 37° C. overnight. 10 μL of different concentrations of the test compounds were added and reacted for 96 hours, and then the solvent control group (negative control) was set. The proliferation inhibitory activities against tumor cells of the test compounds were tested by CCK8 (CellCounting Kit-8, Item No: CK04, purchased from Tongren Chemical) method after 96 hours. The full-wavelength microplate reader SpectraMax190 was used for reading, the measurement wavelength was 450 nm.
as §4
IC50 value was calculated by four parameter regression using microplate reader with random software.

[3] = target: CDK1/CyclinB (Homo sapiens (Human), UniProt P06493); experiment: CDK kinase activity assay (LANCE TR-FRET, ULight-4E-BP1 substrate); format: biochemical; conditions: 60 minutes incubation
Sequence of CDK1/CyclinB (P06493 whole entry): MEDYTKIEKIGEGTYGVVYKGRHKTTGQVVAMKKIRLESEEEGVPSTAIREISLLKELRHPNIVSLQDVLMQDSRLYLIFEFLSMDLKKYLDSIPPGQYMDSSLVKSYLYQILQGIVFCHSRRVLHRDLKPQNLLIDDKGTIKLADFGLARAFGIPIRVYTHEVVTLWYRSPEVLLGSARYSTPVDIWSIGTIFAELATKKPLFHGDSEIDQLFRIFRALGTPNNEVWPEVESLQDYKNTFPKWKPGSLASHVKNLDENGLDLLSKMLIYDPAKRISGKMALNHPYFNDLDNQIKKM
Sequence of CDK1/CyclinB (P14635 whole entry partner): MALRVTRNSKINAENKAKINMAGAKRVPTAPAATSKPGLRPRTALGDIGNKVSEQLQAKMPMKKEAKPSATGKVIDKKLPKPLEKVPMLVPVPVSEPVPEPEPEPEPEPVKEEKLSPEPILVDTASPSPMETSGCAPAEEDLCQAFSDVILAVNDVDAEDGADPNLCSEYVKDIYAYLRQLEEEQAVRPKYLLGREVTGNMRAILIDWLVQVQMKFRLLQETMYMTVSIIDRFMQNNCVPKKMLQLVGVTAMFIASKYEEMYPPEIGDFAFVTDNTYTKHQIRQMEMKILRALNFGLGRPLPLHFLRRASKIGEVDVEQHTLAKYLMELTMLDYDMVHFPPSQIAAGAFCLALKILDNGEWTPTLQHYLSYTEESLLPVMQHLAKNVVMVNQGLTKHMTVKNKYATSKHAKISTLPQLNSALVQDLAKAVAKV
Description: as §1, §2, §3, §4, §5

Sequence of CDK4/CyclinD1 (P11802 whole entry): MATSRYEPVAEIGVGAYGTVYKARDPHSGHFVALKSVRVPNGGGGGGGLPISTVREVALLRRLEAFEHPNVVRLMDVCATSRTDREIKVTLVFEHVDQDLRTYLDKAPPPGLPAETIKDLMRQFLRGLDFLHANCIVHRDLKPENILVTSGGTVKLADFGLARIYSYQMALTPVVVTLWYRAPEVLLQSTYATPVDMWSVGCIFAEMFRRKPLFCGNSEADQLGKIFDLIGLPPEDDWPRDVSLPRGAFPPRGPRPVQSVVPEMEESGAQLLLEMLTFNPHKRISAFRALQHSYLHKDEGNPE
Sequence of CDK4/CyclinD1 (P24385 whole entry partner): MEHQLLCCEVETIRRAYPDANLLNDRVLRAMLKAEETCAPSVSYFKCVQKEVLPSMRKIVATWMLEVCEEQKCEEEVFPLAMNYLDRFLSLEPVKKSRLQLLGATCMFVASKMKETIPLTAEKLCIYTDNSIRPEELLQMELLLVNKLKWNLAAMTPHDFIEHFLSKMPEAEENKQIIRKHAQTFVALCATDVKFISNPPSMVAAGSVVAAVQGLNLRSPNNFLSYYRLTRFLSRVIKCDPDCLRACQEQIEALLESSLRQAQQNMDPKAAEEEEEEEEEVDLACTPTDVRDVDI

Row | IC50 [1] [nM] | IC50 [2] [nM] | IC50 [3] [nM] | Compound
1 | < 100 | > 2000 |  | CN(C)C(=O)c1cc2cnc(Nc3ccc(N4CCN(C(=O)OC(C)(C)C)CC4)cn3)nc2n1N1CCCCC1 [Example 12]
2 | < 100 | 500 to 2000 |  | CN(C)C(=O)c1cc2cnc(Nc3ccc(N4CCNCC4)cn3)nc2n1N1CCCCC1 [Example 13]
3 | < 100 | 500 to 2000 | > 500 | CN1CCN(c2ccc(Nc3ncc4cc(C(=O)N(C)C)n(N5CCCCC5)c4n3)nc2)CC1 [Example 14, N,N-dimethyl-2-((5-(4-methylpiperazin-1-yl)pyridin-2-yl)amino)-7-(piperidin-1-yl)-7H-pyrrolo[2,3-d]pyrimidine-6-carboxamide]
4 | < 100 | > 2000 | > 500 | CN(C)C(=O)c1cc2cnc(Nc3ccc(N4CCNCC4)cn3)nc2n1N1CCCCCC1 [Example 15, 7-(hexamethyleneimin-1-yl)N,N-dimethyl-2-((5-(piperazin-1-yl)pyridin-2-yl)amino)-7H-pyrrolo[2,3-d]pyrimidine-6-carboxamide]
5 | < 100 | 500 to 2000 | > 500 | CN1CCN(c2ccc(Nc3ncc4cc(C(=O)N5CCC5)n(N5CCCCC5)c4n3)nc2)CC1 [Example 16, Azetidin-1-yl-(2-((5-(4-methylpiperazin-1-yl)pyridin-2-yl)amino)-7-(piperidin-1-yl)-7H-pyrrolo[2,3-d]pyrimidin-6-yl)methanone]
6 | < 100 | > 2000 | > 500 | O=C(c1cc2cnc(Nc3ccc(N4CCNCC4)cn3)nc2n1N1CCCCC1)N1CCC1 [Example 17, Azetidin-1-yl-(2-((5-(piperazin-1-yl)pyridin-2-yl)amino)-7-(piperidin-1-yl)-7H-pyrrolo[2,3-d]pyrimidin-6-yl)methanone]
7 | < 100 | 500 to 2000 | > 500 | CNC(=O)c1cc2cnc(Nc3ccc(N4CCNCC4)cn3)nc2n1N1CCCCC1 [Example 18, N-methyl-2-((5-(piperazin-1-yl)pyridin-2-yl)amino)-7-(piperidin-1-yl)-7H-pyrrolo[2,3-d] pyrimidine-6-carboxamide]
8 | < 100 | > 2000 |  | CN(C)C(=O)c1cc2cnc(Nc3ccc(N4CCN(C(=O)OC(C)(C)C)CC4)cn3)nc2n1N1CCCC1 [Example 19, Tert-butyl 4-(6-((6-(dimethylcarbamoyl)-7-(pyrrolidin-1-yl)-7H-pyrrolo[2,3-d]pyrimidin-2-yl)amino)pyridin-3-yl)piperazine-1-carboxylate]
9 | < 100 | 500 to 2000 | > 500 | CN(C)C(=O)c1cc2cnc(Nc3ccc(N4CCNC(C)(C)C4)cn3)nc2n1N1CCCCC1 [Example 20, 2-((5-(3,3-dimethylpiperazin-1-yl)pyridin-2-yl)amino)-N,N-dimethyl-7-(piperidin-1-yl)-7H-pyrrolo[2,3-d]pyrimidine-6-carboxamide]
10 | < 100 | > 2000 | > 500 | CN1CCN(c2ccc(Nc3ncc4cc(C(=O)N5CCCC5)n(N5CCCCC5)c4n3)nc2)CC1 [Example 21, (2-((5-(4-methylpiperazin-1-yl)pyridin-2-yl)amino)-7-(piperidin-1-yl)-7H-pyrrolo[2,3-d]pyrimidin-6-yl)-pyrrolidin-1-ylmethanone]
11 | 100 to 500 |  |  | CN1CCN(c2ccc(Nc3ncc4cc(C(=O)N(C)C)n(N5CCOCC5)c4n3)nc2)CC1 [Example 22, N,N-dimethyl-2-((5-(4-methylpiperazin-1-yl)pyridin-2-yl)amino)-7-morpholino-7H-pyrrolo[2,3-d]pyrimidine-6-carboxamide]
12 | < 100 | > 2000 | > 500 | O=C(c1cc2cnc(Nc3ccc(N4CCNCC4)cn3)nc2n1N1CCCCC1)N1CCCC1 [Example 23, (2-((5-(piperazin-1-yl)pyridin-2-yl)amino)-7-(piperidin-1-yl)-7H-pyrrolo[2,3-d]pyrimidin-6-yl)-pyrrolidin-1-ylmethanone]
13 | < 100 | > 2000 | > 500 | CN(C)C(=O)c1cc2cnc(Nc3ccc(N4CCNCC4)cn3)nc2n1N1CCCC1 [Example 24, N,N-dimethyl-2-((5-(piperazin-1-yl)pyridin-2-yl)amino)-7-(pyrrolidin-1-yl)-7H-pyrrolo[2,3-d]pyrimidine-6-carboxamide]
14 | < 100 | > 2000 | > 500 | CN(C)C(=O)c1cc2cnc(Nc3ccc(N4CCOCC4)cn3)nc2n1N1CCCCC1 [Example 25, N,N-dimethyl-2-((5-morpholinopyridin-2-yl)amino)-7-(piperidin-1-yl)-7H-pyrrolo[2,3-d]pyrimidine-6-carboxamide]
15 | < 100 | 500 to 2000 | > 500 | CCN1CCN(c2ccc(Nc3ncc4cc(C(=O)N(C)C)n(N5CCCCC5)c4n3)nc2)CC1 [Example 26, N,N-dimethyl-2-((5-(4-ethylpiperazin-1-yl)pyridin-2-yl)amino)-7-(piperidin-1-yl)-7H-pyrrolo[2,3-d]pyrimidine-6-carboxamide]
16 | < 100 | 500 to 2000 | > 500 | C[C@@H]1CN(c2ccc(Nc3ncc4cc(C(=O)N(C)C)n(N5CCCCC5)c4n3)nc2)C[C@H](C)N1 [Example 27, 2-((5-((3S,5R)-3,5-dimethylpiperazin-1-yl)pyridin-2-yl)amino)-N,N-dimethyl-7-(piperidin-1-yl)-7H-pyrrolo[2,3-d]pyrimidine-6-carboxamide]
17 | 100 to 500 |  |  | CN(C)C(=O)c1cc2cnc(Nc3ccc(N4CCNCC4)cn3)nc2n1N1CCOCC1 [Example 28, N,N-dimethyl-2-((5-(piperazin-1-yl)pyridin-2-yl)amino)-7-morpholino-7H-pyrrolo[2,3-d]pyrimidine-6-carboxamide]
18 | < 100 | > 2000 | > 500 | CCN(CC)C(=O)c1cc2cnc(Nc3ccc(N4CCNCC4)cn3)nc2n1N1CCCCC1 [Example 29, N,N-diethyl-2-((5-(piperazin-1-yl)pyridin-2-yl)amino)-7-(piperidin-1-yl)-7H-pyrrolo[2,3-d]pyrimidine-6-carboxamide]
